Where “and” joins values, the source holds several entries; their conditions need not be identical. Identical values can stand only once. Like-named read-outs stand apart in the source and are kept apart here.
Experiments:
[1] = Protocol: Lipid formulations containing the compound of interest were then administered to the animals, the lymph collected and drug concentrations in the lymph subsequently quantified.
Lipid-based formulations of the compounds of the invention or control compounds were prepared as previously described (Trevaskis, N. L. et al., Pharmaceutical Research, 2005, 22(11), 1863-1870). Briefly, approximately 2 mg of the compound (1 mg in the case of Compound 35 and Compound 1), 40 mg oleic acid and 25 mg Tween 80 were mixed in a glass vial until equilibrated (gentle heat (below 50° C.) may be applied for a short period).
[…] This was to eliminate the potential for the relatively high and variable levels of endogenous testosterone in male rats interfering with the quantification of exogenously dosed testosterone. Rats (240-320 g) were maintained on a standard diet and fasted overnight with free access to water prior to experiments. Anaesthetised rats were placed on a heated pad at 37° C. and cannulas were inserted into the duodenum (for formulation administration and rehydration), mesenteric lymph duct (for lymph collection) and carotid artery (for blood collection) as previously described (Edwards et al. Advanced Drug Delivery Reviews 2001, 50(1), 45-60). Post-surgery, rats were re-hydrated for 0.5 h via intraduodenal infusion of normal saline at 2.8 mL/h. The lipid formulations were infused into the duodenum at 2.8 mL/h for 2 h, after which the infusion was changed to 2.8 mL/h normal saline for the remainder of the experiment. Lymph was continuously collected for 6 to 8 h into pre-weighed Eppendorf tubes containing 10 μL of 1,000 IU/mL heparin. The collection tubes were changed hourly and lymph flow was measured gravimetrically. Aliquots of hourly lymph samples were stored at −80° C. prior to assay.
Drug concentration in lymph is expressed as total drug and includes free drug and drug associated with different glycerides. This is assayed by hydrolysis of lymph (to liberate drug from any re-esterified glycerides) prior to assessment of free drug.
FIG. 1 illustrates the cumulative lymphatic transport of total testosterone related derivatives (% of administered dose) versus time in anaesthetised mesenteric lymph duct cannulated female SD rats following intraduodenal infusion of formulations from 0 to 2 h. Each Formulation contained 2 mg of the exemplified compound or the control, testosterone undecanoate (TU), dispersed in 40 mg oleic acid, 25 mg Tween 80 and 5.6 ml PBS.

[2] = Pharmacokinetic study in rats, testosterone plasma concentrations after oral gavage; details: testosterone in plasma, oral gavage; for Tmax / AUC0-24 h / Cmax: conscious carotid artery cannulated SD female rats; for AUC0-24 h / Cmax: normalized to 2 mg/kg equivalent testosterone dose
Protocol: In order to assess the oral bioavailability of the compounds of the invention, pharmacokinetic studies were conducted in rats and dogs. […] The rats were then allowed to regain consciousness and fasted overnight prior to the commencement of experiments with free access to water. […] The oral formulation of Compound 2 contained 3 mg of the compound, 20 mg oleic acid and 12.5 mg Tween 80 dispersed in 1 mL PBS. Blood samples were collected from the carotid artery cannula from 5 min prior to administration up to 24 h post-dosing and centrifuged at 5000 rpm for 5 min to separate plasma. […] Plasma samples were stored at −80° C. prior to assay by HPLC-MS-MS. In this case samples were assayed for free drug (i.e. non-glyceride associated drug) and were not hydrolysed prior to assay (as was the case with the lymph samples).
FIG. 12 illustrates dose-normalized testosterone plasma concentrations following oral gavage of formulations to conscious, carotid artery cannulated female SD rats. Formulations contained 1 mg of TU, or 2 mg of compounds of the invention containing testosterone dispersed in 40 mg oleic acid, 25 mg Tween 80 and 2 ml PBS. Doses are normalized to a 2 mg/kg equivalent dose of testosterone. Data are shown as mean±SEM for all groups (n=4 or 3 for each group). The embedded figure is the plot of the dose-normalized plasma AUC0-24h (nmol×h/L) of testosterone in the form of a bar graph.

[3] = anaesthetised, mesenteric lymph-duct cannulated male SD rats, intraduodenal infusion, MET, ATV, ASP, SER or CEL derivatives
[4] = anaesthetised, mesenteric lymph-duct cannulated male SD rats, intraduodenal infusion 0-2 h, cumulative over 8 h
[5] = lymphatic transport of total MPA derivatives, male SD rats, intraduodenal infusion
[6] = male, Sprague-Dawley, rat, in vivo

Compound: 1-(1,3-Bis(palmitoyloxy)propan-2-yl) 10-(1-(isopropylamino)-3-(4-(2-methoxyethyl)phen-oxy)propan-2-yl) decanedioate [Compound 3]
- Transport of total drug derivatives in lymph (% of dose) [1, 3]: 14.2 ± 1.5 % of dose
- Increase fold (compared with parent drug group) ([1]; lymphatic transport of total drug derivatives, male SD rats, intraduodenal infusion): 591.7 fold

Compound: CCCCCCCCCCCCCCCC(=O)OCC(COC(=O)CCCCCCCCCCCCCCC)OC(=O)C(C)CCCOC(=O)CCC(C)=CCc1c(O)c2c(c(C)c1OC)COC2=O (mixture of isomers) [Compound 36]
- Transport of total MPA derivatives in lymph (% of dose) [1, 4]: 9.1 % of dose and 9.1 ± 1.4 % of dose
- Fold increase (compared with MPA dosed group) [1, 5]: 54.6 fold

Compound: CCCCCCCCCCCCCCCC(=O)OCC(COC(=O)CCCCCCCCCCCCCCC)OC(=O)C(C)CCCCOC(=O)CCC(C)=CCc1c(O)c2c(c(C)c1OC)COC2=O (mixture of isomers) [Compound 37]
- Transport of total MPA derivatives in lymph (% of dose) [1, 4]: 12.6 % of dose and 12.6 ± 1.7 % of dose
- Fold increase (compared with MPA dosed group) [1, 5]: 75.0 fold

Compound: CCCCCCCCCCCCCCCC(=O)OCC(COC(=O)CCCCCCCCCCCCCCC)OC(=O)CC(C)CCOC(=O)CCC(C)=CCc1c(O)c2c(c(C)c1OC)COC2=O (mixture of isomers) [Compound 38]
- Transport of total MPA derivatives in lymph (% of dose) [1, 4]: 12.1 % of dose and 12.1 ± 1.0 % of dose
- Fold increase (compared with MPA dosed group) [1, 5]: 72.3 fold

Compound: CCCCCCCCCCCCCCCC(=O)OCC(COC(=O)CCCCCCCCCCCCCCC)OC(=O)CC(C)CCCCCCCCCCCCOC(=O)CCC(C)=CCc1c(O)c2c(c(C)c1OC)COC2=O (mixture of isomers) [Compound 39]
- Transport of total MPA derivatives in lymph (% of dose) [1, 4]: 28.4 % of dose and 28.4 ± 3.2 % of dose
- Fold increase (compared with MPA dosed group) [1, 5]: 167.0 fold

Compound: CC(=O)Oc1ccccc1C(=O)O [ASP, aspirin, reference compound]
- Increase fold (compared with parent drug group) [1, 6]: 1.0 fold
- Transport of total drug derivatives in lymph (% of dose) [1, 6]: 1.3 ± 0.2 % of dose

Compound: CCCCCCCCCCCCCCCC(=O)OCC(COC(=O)CCCCCCCCCCCCCCC)OC(=O)CCCCCCCCC(=O)Oc1cc(C)cc(C)c1C(C)(C)CC(=O)NS(=O)(=O)c1ccc(-n2nc(C(F)(F)F)cc2-c2ccc(C)cc2)cc1 [Compound 5]
- Transport of total drug derivatives in lymph (% of dose) [1, 3]: 15.7 ± 1.3 % of dose

Compound: CCCCCCCCCCCCCCCC(=O)OCC(COC(=O)CCCCCCCCCCCCCCC)OC(=O)CCCC(=O)O[C@H]1CC[C@H]2[C@@H]3CCC4=CC(=O)CC[C@]4(C)[C@H]3CC[C@]12C [Compound 10]
- AUC0-24 h fold increase compared with TU group ([2]; SD female rats, dose-normalized): 2.8 fold and 2.9 fold
- Tmax [2]: 1.0 ± 0.0 h and 1.1 ± 0.1 h
- AUC0-24 h [2]: 0.0191 ± 0.0024 µM·h and 0.0196 ± 0.0008 µM·h
- Cmax [2]: 19 nM and 13.7 nM
- Transport of total TST derivatives in lymph (% of dose) ([1]; anaesthetised, mesenteric lymph-duct cannulated female SD rats, intraduodenal infusion 0-2 h, cumulative over 8 h): 14.5 % of dose
- Fold increase (compared with control group dosed with TU) ([1]; lymphatic transport of total TST derivatives, female SD rats, intraduodenal infusion): 7.7 fold

Compound: CCCCCCCCCCCCCCCC(=O)OCC(COC(=O)CCCCCCCCCCCCCCC)OC(=O)CCCCC(=O)Oc1cc(C)cc(C)c1C(C)(C)CC(=O)O[C@H]1CC[C@H]2[C@@H]3CCC4=CC(=O)CC[C@]4(C)[C@H]3CC[C@]12C [Compound 22, 1,3-Bis(palmitoyloxy)propan-2-yl (2-(4-(((8R,9S,10R,13S,14S,17S)-10,13-dimethyl-3-oxo-2,3,6,7,8,9,10,11,12,13-14,15,16,17-tetradecahydro-1H-cyclopenta[a]phenanthren-17-yl)oxy)-2-methyl-4-oxobutan-2-yl)-3,5-dimethylphenyl) adipate]
- Tmax [2]: 1.0 ± 0.0 h
- AUC0-24 h [2]: 0.2691 ± 0.0588 µM·h
- Cmax [2]: 171 ± 27 nM

Compound: CCCCCCCCCCCCCCCC(=O)OCC(COC(=O)CCCCCCCCCCCCCCC)OC(=O)CCCCCCCCC(=O)Oc1cc(C)cc(C)c1C(C)(C)CC(=O)O[C@H]1CC[C@H]2[C@@H]3CCC4=CC(=O)CC[C@]4(C)[C@H]3CC[C@]12C [Compound 26]
- Tmax [2]: 1.1 ± 0.1 h
- AUC0-24 h [2]: 0.6173 ± 0.1778 µM·h
- Cmax [2]: 487 ± 134 nM

Compound: CCCCCCCCCCCCCCCC(=O)OCC(COC(=O)CCCCCCCCCCCCCCC)OC(=O)CCCCCCCOC(=O)CC/C(C)=C/Cc1c(O)c2c(c(C)c1OC)COC2=O [Compound 33]
- Transport of total MPA derivatives in lymph (% of dose) [1, 4]: 10.5 ± 0.7 % of dose
- Fold increase (compared with MPA dosed group) [1, 5]: 62.8 fold

Compound: CCCCCCCCCCCCCCCC(=O)OCC(COC(=O)CCCCCCCCCCCCCCC)OC(=O)CCCCCCCCCCCCCCOC(=O)CC/C(C)=C/Cc1c(O)c2c(c(C)c1OC)COC2=O [Compound 34]
- Transport of total MPA derivatives in lymph (% of dose) [1, 4]: 22.1 % of dose and 22.1 ± 3.5 % of dose
- Transport of total MPA derivatives in lymph (% of dose) ([1]; anaesthetised, mesenteric lymph-duct cannulated male SD rats, intraduodenal infusion 0-2 h, cumulative over 8 h, listed as compound 34): 22.1 % of dose
- Fold increase (compared with MPA dosed group) [1, 5]: 132.0 fold

Compound: CCCCCCCCCCCCCCCC(=O)OCC(COC(=O)CCCCCCCCCCCCCCC)OC(=O)CCCCCCCCCCCCCCCCCCCCOC(=O)CC/C(C)=C/Cc1c(O)c2c(c(C)c1OC)COC2=O [Compound 35]
- Transport of total MPA derivatives in lymph (% of dose) [1, 4]: 9.7 ± 1.0 % of dose
- Fold increase (compared with MPA dosed group) [1, 5]: 58.1 fold

Compound: CCCCCCCCCCCCCCCC(=O)OCC(COC(=O)CCCCCCCCCCCCCCC)OC(=O)CCCCSC(=O)CC/C(C)=C/Cc1c(O)c2c(c(C)c1OC)COC2=O [Compound 40]
- Transport of total MPA derivatives in lymph (% of dose) [1, 4]: 10.2 ± 3.0 % of dose
- Fold increase (compared with MPA dosed group) [1, 5]: 61.1 fold

Compound: COCCc1ccc(OCC(O)CNC(C)C)cc1 (stereo not shown) [MET, metoprolol, reference compound]
- Increase fold (compared with parent drug group) [1, 6]: 1.0 fold
- Transport of total drug derivatives in lymph (% of dose) [1, 6]: 0.02 ± 0.01 % of dose

Compound: COc1c(C)c2c(c(O)c1C/C=C(\C)CCC(=O)O)C(=O)OC2 [MPA, mycophenolic acid, reference compound]
- Fold increase (compared with MPA dosed group) [1, 6]: 1.0 fold
- Transport of total MPA derivatives in lymph (% of dose) [1, 6]: 0.17 ± 0.05 % of dose

Compound: CN[C@H]1CC[C@@H](c2ccc(Cl)c(Cl)c2)c2ccccc21 [SER, sertraline, reference compound]
- Increase fold (compared with parent drug group) [1, 6]: 1.0 fold
- Transport of total drug derivatives in lymph (% of dose) [1, 6]: 0.05 % of dose
